This passage reports Emax and EC50 results from patent publication US20250304644A1, “PEPTIDES TRIPLE AGONISTS OF GIP, GLP-1 AND GLP-2” (BAINAN BIOTECH APS, priority 2021, published 2025).

Where a SMILES comes first, the peptide text is derived from it. [ ]: non-standard residue; d: D form. The star is where a group is joined. Decanoyl = CCCCCCCCCC(=O)*; Aib = CC(C)(N)C(=O)O

What all share (format): cell-based
One test addresses T1, human GIPR (Homo sapiens, UniProt P48546).
T1 construct: host or cells: COS-7
T1 sequence (P48546 22-466): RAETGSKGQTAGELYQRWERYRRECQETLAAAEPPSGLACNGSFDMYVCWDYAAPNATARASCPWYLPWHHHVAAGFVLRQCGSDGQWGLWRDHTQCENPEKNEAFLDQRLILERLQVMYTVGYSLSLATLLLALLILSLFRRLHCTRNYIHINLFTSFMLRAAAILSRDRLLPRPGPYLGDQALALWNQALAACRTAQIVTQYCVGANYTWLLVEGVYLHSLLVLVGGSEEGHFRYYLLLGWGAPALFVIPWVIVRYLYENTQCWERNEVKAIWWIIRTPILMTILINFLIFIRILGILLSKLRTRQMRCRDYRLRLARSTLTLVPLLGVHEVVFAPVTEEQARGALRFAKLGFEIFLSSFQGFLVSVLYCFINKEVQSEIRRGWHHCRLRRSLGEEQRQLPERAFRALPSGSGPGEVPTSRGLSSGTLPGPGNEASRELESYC
Nature of the test: cAMP assay (HitHunter) in transiently transfected COS-7 cells expressing human GIPR. The following applies: for Emax: COS-7, normalized to highest concentration of the endogenous ligand, read-out: Efficacy GIPR (Emax); for EC50: cAMP, COS-7 cells, human GIPR. The protocol:
(§1) The next day the assay was initiated by washing with HEPES buffered saline (HBS) and followed by an incubation step with assay buffer (HBS added 1 mM isobutyl-1-methylxanthine (IBMX)) for 30 min at 37° C. The ligands were then added and incubated for an additional 30 min at 37° C. After ligand incubation, the HitHunter® CAMP assay (Eurofins DiscoverX, Fremont, […] USA) was carried out according to the manufacturer's instructions. […] The potencies (EC50 values) were determined by nonlinear regression using GraphPad Prism 9 (San Diego, California, USA). Sigmoid curves were fitted logistically. The efficacies (Emax values) were determined by normalization to the highest concentration applied of the endogenous ligand for each receptor.
(In general: cAMP levels reflect the balance of adenylyl cyclase and phosphodiesterase activity.)

The next test deals with T2, human GLP-2R (Homo sapiens, UniProt O95838).
T2 construct: host or cells: COS-7
T2 sequence (O95838 1-553): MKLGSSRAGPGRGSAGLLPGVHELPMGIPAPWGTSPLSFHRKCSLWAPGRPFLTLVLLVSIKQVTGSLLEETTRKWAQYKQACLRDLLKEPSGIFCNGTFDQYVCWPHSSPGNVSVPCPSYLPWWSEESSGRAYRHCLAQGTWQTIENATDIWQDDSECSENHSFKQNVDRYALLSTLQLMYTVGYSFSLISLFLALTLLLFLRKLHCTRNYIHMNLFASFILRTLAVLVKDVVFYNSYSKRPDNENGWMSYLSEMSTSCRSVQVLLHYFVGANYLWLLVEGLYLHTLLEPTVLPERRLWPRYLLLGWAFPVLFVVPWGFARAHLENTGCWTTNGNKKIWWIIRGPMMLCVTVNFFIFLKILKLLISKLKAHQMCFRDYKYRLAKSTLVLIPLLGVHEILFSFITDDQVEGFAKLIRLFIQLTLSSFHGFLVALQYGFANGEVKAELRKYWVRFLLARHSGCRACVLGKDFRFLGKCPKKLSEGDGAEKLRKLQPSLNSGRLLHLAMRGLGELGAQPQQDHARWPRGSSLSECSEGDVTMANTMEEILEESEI
In words: cAMP assay (HitHunter) in transiently transfected COS-7 cells expressing human GLP-2R. The following applies: for Emax: COS-7, normalized to highest concentration of the endogenous ligand, read-out: Efficacy GLP-2R (Emax); for EC50: cAMP, COS-7 cells, human GLP-2R, read-out: EC50 (nM) GLP-2R. The protocol:
as §1

Another test concerns the target T3, human GLP-1R (Homo sapiens, UniProt P43220).
T3 construct: host or cells: COS-7
Nature of the test: cAMP assay (HitHunter) in transiently transfected COS-7 cells expressing human GLP-1R. The following applies: for Emax: COS-7, normalized to highest concentration of the endogenous ligand, read-out: Efficacy GLP-1R (Emax); for EC50: cAMP, COS-7 cells, human GLP-1R, read-out: EC50 (nM) GLP-1R. The protocol:
as §1

T3 sequence (P43220 24-463): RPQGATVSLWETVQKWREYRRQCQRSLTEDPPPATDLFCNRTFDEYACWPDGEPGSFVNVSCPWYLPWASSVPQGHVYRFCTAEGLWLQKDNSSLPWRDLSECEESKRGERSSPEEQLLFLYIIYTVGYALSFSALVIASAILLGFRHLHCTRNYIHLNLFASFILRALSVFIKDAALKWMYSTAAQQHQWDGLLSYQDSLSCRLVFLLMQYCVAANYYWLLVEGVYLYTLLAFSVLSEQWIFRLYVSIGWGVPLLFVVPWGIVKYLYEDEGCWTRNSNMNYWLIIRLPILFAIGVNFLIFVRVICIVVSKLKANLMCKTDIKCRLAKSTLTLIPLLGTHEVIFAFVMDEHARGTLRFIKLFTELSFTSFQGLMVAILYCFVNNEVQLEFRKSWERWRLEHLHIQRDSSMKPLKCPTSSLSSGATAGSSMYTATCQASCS

Broadly, the Emax is the size of the effect at its maximum, as opposed to the concentration needed. What is called EC50 is the concentration giving half of the maximal effect. In the case of `CCCCCCCCCC(=O)NCCCC[C@H](NC(=O)[C@@H](NC(=O)[C@@H](NC(=O)[C@H](CCCCN)NC(=O)[C@@H](NC(=O)[C@H](CCC(N)=O)NC(=O)[C@@H](NC(=O)[C@H](CC(C)C)NC(=O)[C@H](Cc1c[nH]c2ccccc12)NC(=O)[C@H](CC(N)=O)NC(=O)[C@@H](NC(=O)[C@H](Cc1ccccc1)NC(=O)[C@H](CC(=O)O)NC(=O)[C@H](CCCNC(=N)N)NC(=O)[C@H](C)NC(=O)[C@H](C)NC(=O)[C@H](CC(C)C)NC(=O)[C@H](C)NC(=O)[C@H](CC(=O)O)NC(=O)[C@H](CC(C)C)NC(=O)[C@@H](NC(=O)[C@@H](NC(=O)[C@H](CO)NC(=O)[C@H](Cc1ccc(O)cc1)NC(=O)[C@H](CC(=O)O)NC(=O)[C@H](CO)NC(=O)[C@@H](NC(=O)[C@H](Cc1ccccc1)NC(=O)[C@@H](NC(=O)CNC(=O)[C@H](CC(=O)O)NC(=O)C(C)(C)NC(=O)[C@@H](N)Cc1c[nH]cn1)[C@@H](C)O)[C@@H](C)CC)[C@@H](C)O)[C@@H](C)CC)[C@@H](C)CC)[C@@H](C)CC)[C@@H](C)O)[C@@H](C)CC)[C@@H](C)O)C(N)=O` [Compound 5] (H-H[Aib]DGTFISDYSTILDALAARDFINWLIQTKITK(Decanoyl)-NH2), the Emax at human GIPR amounted to 111%; on human GLP-2R, 110%; on human GLP-1R, 105%. Also, the EC50 at human GIPR is 0.158 nM; at human GLP-2R, 2 nM; at human GLP-1R, 1.78 nM.
Take `CCCCCCCCCC(=O)NCCCC[C@H](NC(=O)[C@@H](NC(=O)[C@@H](NC(=O)[C@H](CCCCN)NC(=O)[C@@H](NC(=O)[C@H](CCC(N)=O)NC(=O)[C@@H](NC(=O)[C@H](CC(C)C)NC(=O)[C@H](Cc1c[nH]c2ccccc12)NC(=O)[C@H](CC(N)=O)NC(=O)[C@@H](NC(=O)[C@H](Cc1ccccc1)NC(=O)[C@H](CC(=O)O)NC(=O)[C@H](CCCNC(=N)N)NC(=O)[C@H](C)NC(=O)[C@H](C)NC(=O)[C@H](CC(C)C)NC(=O)[C@H](CC(N)=O)NC(=O)[C@H](CCC(=O)O)NC(=O)[C@H](CC(C)C)NC(=O)[C@@H](NC(=O)[C@@H](NC(=O)[C@H](CO)NC(=O)[C@H](Cc1ccc(O)cc1)NC(=O)[C@H](CC(=O)O)NC(=O)[C@H](CO)NC(=O)[C@@H](NC(=O)[C@H](Cc1ccccc1)NC(=O)[C@@H](NC(=O)CNC(=O)[C@H](CC(=O)O)NC(=O)C(C)(C)NC(=O)[C@@H](N)Cc1c[nH]cn1)[C@@H](C)O)[C@@H](C)CC)[C@@H](C)O)[C@@H](C)CC)[C@@H](C)CC)[C@@H](C)CC)[C@@H](C)O)[C@@H](C)CC)[C@@H](C)O)C(N)=O` [Compound 7] (H-H[Aib]DGTFISDYSTILENLAARDFINWLIQTKITK(Decanoyl)-NH2): the Emax on human GIPR is 96%; on human GLP-2R, 97%; at human GLP-1R, 95%. In addition, the concentration giving a half-maximal response (EC50) at human GIPR was 0.794 nM; at human GLP-1R, 2.82 nM.
With `CCCCCCCCCC(=O)NCCCC[C@H](NC(=O)[C@@H](NC(=O)[C@@H](NC(=O)[C@H](CCCCN)NC(=O)[C@@H](NC(=O)[C@H](CCC(N)=O)NC(=O)[C@@H](NC(=O)[C@H](CC(C)C)NC(=O)[C@H](Cc1c[nH]c2ccccc12)NC(=O)[C@H](CCC(=O)O)NC(=O)[C@@H](NC(=O)[C@H](Cc1ccccc1)NC(=O)[C@H](CC(=O)O)NC(=O)[C@H](CCCNC(=N)N)NC(=O)[C@H](C)NC(=O)[C@H](C)NC(=O)[C@H](CC(C)C)NC(=O)[C@H](CC(N)=O)NC(=O)[C@H](CC(=O)O)NC(=O)[C@H](CC(C)C)NC(=O)[C@@H](NC(=O)[C@@H](NC(=O)[C@H](CO)NC(=O)[C@H](Cc1ccc(O)cc1)NC(=O)[C@H](CC(=O)O)NC(=O)[C@H](CO)NC(=O)[C@@H](NC(=O)[C@H](Cc1ccccc1)NC(=O)[C@@H](NC(=O)CNC(=O)[C@H](CC(=O)O)NC(=O)C(C)(C)NC(=O)[C@@H](N)Cc1c[nH]cn1)[C@@H](C)O)[C@@H](C)CC)[C@@H](C)O)[C@@H](C)CC)[C@@H](C)CC)[C@@H](C)CC)[C@@H](C)O)[C@@H](C)CC)[C@@H](C)O)C(N)=O` [Compound 9], the Emax on human GIPR came out at 104%; on human GLP-2R it was 108%; on human GLP-1R it was 105%. In addition, on human GLP-2R, the 50% effective concentration (EC50) came out at 11.2 nM.
